Data published in publication PMC3933419, “Synthesis and Properties of a Selective Inhibitor of Homeodomain–Interacting Protein Kinase 2 (HIPK2)” (PLoS ONE, 2014).

Tests used:
Assay in all cases: Kinase panel selectivity profiling
Format in all cases: biochemical
PAK6 = PAK6 (Homo sapiens, UniProt Q9NQU5); conditions: TBID 1 μM, 125 kinase panel, read-out: % activity of the enzyme
From the text: (§1) The source of HIPK2 and of all of the other protein kinases used for specificity assays is as described elsewhere.
(§2) Conditions for the activity assays of all other protein kinases tested in selectivity experiments are as described or referenced in [9].

PAK4 = PAK4 (Homo sapiens, UniProt O96013); conditions: TBID 1 μM, 125 kinase panel, read-out: % activity of the enzyme
From the text: as §1, §2

p38d MAPK = p38d MAPK (Homo sapiens, UniProt O15264); conditions: TBID 1 μM, 125 kinase panel, read-out: % activity of the enzyme
From the text: as §1, §2

ZAP70 = ZAP70 (Homo sapiens, UniProt P43403); conditions: TBID 1 μM, 125 kinase panel, read-out: % activity of the enzyme
From the text: as §1, §2

JAK2 = JAK2 (Homo sapiens, UniProt O60674); conditions: TBID 1 μM, 125 kinase panel, read-out: % activity of the enzyme
From the text: as §1, §2

ABL = ABL (Homo sapiens, UniProt P00519); conditions: TBID 1 μM, 125 kinase panel, read-out: % activity of the enzyme
From the text: as §1, §2

RSK2 = RSK2 (Homo sapiens, UniProt P51812); conditions: TBID 1 μM, 125 kinase panel, read-out: % activity of the enzyme
From the text: as §1, §2

p38a MAPK = p38a MAPK (Homo sapiens, UniProt Q16539); conditions: TBID 1 μM, 125 kinase panel, read-out: % activity of the enzyme
From the text: as §1, §2

PLK1 = PLK1 (Homo sapiens, UniProt P53350); conditions: TBID 1 μM, 125 kinase panel, read-out: % activity of the enzyme
From the text: as §1, §2

OSR1 = OSR1 (Homo sapiens, UniProt O95747); conditions: TBID 1 μM, 125 kinase panel, read-out: % activity of the enzyme
From the text: as §1, §2

HIPK1 = HIPK1 (Homo sapiens, UniProt Q86Z02); conditions: TBID 1 μM, 125 kinase panel, read-out: % activity of the enzyme
From the text: as §1, §2

PDK1 = PDK1 (Homo sapiens, UniProt O15530); conditions: TBID 1 μM, 125 kinase panel, read-out: % activity of the enzyme
From the text: as §1, §2

p38g MAPK = p38g MAPK (Homo sapiens, UniProt P53778); conditions: TBID 1 μM, 125 kinase panel, read-out: % activity of the enzyme
From the text: as §1, §2

PKCa = PKCa (Homo sapiens, UniProt P17252); conditions: TBID 1 μM, 125 kinase panel, read-out: % activity of the enzyme
From the text: as §1, §2

Aurora B = Aurora B (Homo sapiens, UniProt Q96GD4); conditions: TBID 1 μM, 125 kinase panel, read-out: % activity of the enzyme
From the text: as §1, §2

ROCK 2 = ROCK 2 (Homo sapiens, UniProt O75116); conditions: TBID 1 μM, 125 kinase panel, read-out: % activity of the enzyme
From the text: as §1, §2

MARK4 = MARK4 (Homo sapiens, UniProt Q96L34); conditions: TBID 1 μM, 125 kinase panel, read-out: % activity of the enzyme
From the text: as §1, §2

TAK1 = TAK1 (Homo sapiens, UniProt O43318); conditions: TBID 1 μM, 125 kinase panel, read-out: % activity of the enzyme
From the text: as §1, §2

PKCγ = PKCγ (Homo sapiens, UniProt P05129); conditions: TBID 1 μM, 125 kinase panel, read-out: % activity of the enzyme
From the text: as §1, §2

YES1 = YES1 (Homo sapiens, UniProt P07947); conditions: TBID 1 μM, 125 kinase panel, read-out: % activity of the enzyme
From the text: as §1, §2

BRSK1 = BRSK1 (Homo sapiens, UniProt Q8TDC3); conditions: TBID 1 μM, 125 kinase panel, read-out: % activity of the enzyme
From the text: as §1, §2

NEK2a = NEK2a (Homo sapiens, UniProt P51955); conditions: TBID 1 μM, 125 kinase panel, read-out: % activity of the enzyme
From the text: as §1, §2

JNK3 = JNK3 (Homo sapiens, UniProt P53779); conditions: TBID 1 μM, 125 kinase panel, read-out: % activity of the enzyme
From the text: as §1, §2

RIPK2 = RIPK2 (Homo sapiens, UniProt O43353); conditions: TBID 1 μM, 125 kinase panel, read-out: % activity of the enzyme
From the text: as §1, §2

HIPK3 = HIPK3 (Homo sapiens, UniProt Q9H422); conditions: TBID 1 μM, 125 kinase panel, read-out: % activity of the enzyme
From the text: as §1, §2

MPSK1 = MPSK1 (Homo sapiens, UniProt O75716); conditions: TBID 1 μM, 125 kinase panel, read-out: % activity of the enzyme
From the text: as §1, §2

BTK = BTK (Homo sapiens, UniProt Q06187)
From the text: as §1, §2

DYRK1A = DYRK1A (Homo sapiens, UniProt Q13627)
From the text: as §1, §2

MLK1 = MLK1 (Homo sapiens, UniProt P80192); conditions: TBID 1 μM, 125 kinase panel, read-out: % activity of the enzyme
From the text: as §1, §2

TLK1 = TLK1 (Homo sapiens, UniProt Q9UKI8); conditions: TBID 1 μM, 125 kinase panel, read-out: % activity of the enzyme
From the text: as §1, §2

JNK2 = JNK2 (Homo sapiens, UniProt P45984); conditions: TBID 1 μM, 125 kinase panel, read-out: % activity of the enzyme
From the text: as §1, §2

CDK2-Cyclin A = CDK2-Cyclin A (Homo sapiens, UniProt P24941); conditions: TBID 1 μM, 125 kinase panel, read-out: % activity of the enzyme
From the text: as §1, §2

PKD1 = PKD1 (Homo sapiens, UniProt Q15139); conditions: TBID 1 μM, 125 kinase panel, read-out: % activity of the enzyme
From the text: as §1, §2

MSK1 = MSK1 (Homo sapiens, UniProt O75582); conditions: TBID 1 μM, 125 kinase panel, read-out: % activity of the enzyme
From the text: as §1, §2

CHK2 = CHK2 (Homo sapiens, UniProt O96017); conditions: TBID 1 μM, 125 kinase panel, read-out: % activity of the enzyme
From the text: as §1, §2

MKK2 = MKK2 (Homo sapiens, UniProt P36507); conditions: TBID 1 μM, 125 kinase panel, read-out: % activity of the enzyme
From the text: as §1, §2

MAPKAP-K3 = MAPKAP-K3 (Homo sapiens, UniProt Q16644); conditions: TBID 1 μM, 125 kinase panel, read-out: % activity of the enzyme
From the text: as §1, §2

CSK = CSK (Homo sapiens, UniProt P41240); conditions: TBID 1 μM, 125 kinase panel, read-out: % activity of the enzyme
From the text: as §1, §2

LKB1 = LKB1 (Homo sapiens, UniProt Q15831); conditions: TBID 1 μM, 125 kinase panel, read-out: % activity of the enzyme
From the text: as §1, §2

Aurora A = Aurora A (Homo sapiens, UniProt O14965); conditions: TBID 1 μM, 125 kinase panel, read-out: % activity of the enzyme
From the text: as §1, §2

IKKe = IKKe (Homo sapiens, UniProt Q14164); conditions: TBID 1 μM, 125 kinase panel, read-out: % activity of the enzyme
From the text: as §1, §2

MINK1 = MINK1 (Homo sapiens, UniProt Q8N4C8); conditions: TBID 1 μM, 125 kinase panel, read-out: % activity of the enzyme
From the text: as §1, §2

[1] = 10 µM TBID, panel of 76 protein kinases, read-out: residual activity
[2] = TBID 1 μM, 125 kinase panel, read-out: % activity of the enzyme

Sequence of BTK (Q06187 whole entry): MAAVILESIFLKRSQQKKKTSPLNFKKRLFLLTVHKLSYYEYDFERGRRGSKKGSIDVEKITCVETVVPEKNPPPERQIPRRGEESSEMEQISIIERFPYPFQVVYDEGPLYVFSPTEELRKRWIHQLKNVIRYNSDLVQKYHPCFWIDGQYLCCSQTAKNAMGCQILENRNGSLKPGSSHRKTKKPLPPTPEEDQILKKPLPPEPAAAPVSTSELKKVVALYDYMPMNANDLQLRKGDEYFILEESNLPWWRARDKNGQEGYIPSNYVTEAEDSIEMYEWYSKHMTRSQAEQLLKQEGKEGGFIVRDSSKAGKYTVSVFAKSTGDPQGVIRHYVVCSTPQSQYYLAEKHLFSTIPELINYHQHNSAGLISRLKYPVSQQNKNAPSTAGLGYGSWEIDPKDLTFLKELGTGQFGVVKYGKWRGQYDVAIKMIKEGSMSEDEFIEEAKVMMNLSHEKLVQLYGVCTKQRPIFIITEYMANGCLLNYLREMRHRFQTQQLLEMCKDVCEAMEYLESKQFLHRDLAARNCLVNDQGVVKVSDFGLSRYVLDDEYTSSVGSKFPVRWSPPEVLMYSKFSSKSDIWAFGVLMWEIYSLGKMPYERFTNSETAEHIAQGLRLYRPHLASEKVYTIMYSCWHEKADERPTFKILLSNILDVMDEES
Sequence of YES1 (P07947 whole entry): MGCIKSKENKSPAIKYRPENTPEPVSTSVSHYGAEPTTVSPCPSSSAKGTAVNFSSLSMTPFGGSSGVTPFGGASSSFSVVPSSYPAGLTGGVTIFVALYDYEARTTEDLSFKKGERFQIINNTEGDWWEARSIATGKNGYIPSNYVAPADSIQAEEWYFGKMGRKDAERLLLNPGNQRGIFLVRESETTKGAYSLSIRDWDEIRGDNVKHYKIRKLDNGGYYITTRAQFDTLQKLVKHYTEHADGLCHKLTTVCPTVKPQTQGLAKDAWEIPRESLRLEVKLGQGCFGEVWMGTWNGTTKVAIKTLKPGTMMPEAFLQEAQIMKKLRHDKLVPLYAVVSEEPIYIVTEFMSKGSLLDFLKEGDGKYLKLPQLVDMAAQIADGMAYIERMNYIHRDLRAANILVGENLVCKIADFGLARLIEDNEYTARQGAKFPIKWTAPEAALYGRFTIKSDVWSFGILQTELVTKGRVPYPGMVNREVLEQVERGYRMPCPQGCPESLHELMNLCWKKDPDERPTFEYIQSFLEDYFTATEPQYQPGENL
Sequence of JNK2 (P45984 whole entry): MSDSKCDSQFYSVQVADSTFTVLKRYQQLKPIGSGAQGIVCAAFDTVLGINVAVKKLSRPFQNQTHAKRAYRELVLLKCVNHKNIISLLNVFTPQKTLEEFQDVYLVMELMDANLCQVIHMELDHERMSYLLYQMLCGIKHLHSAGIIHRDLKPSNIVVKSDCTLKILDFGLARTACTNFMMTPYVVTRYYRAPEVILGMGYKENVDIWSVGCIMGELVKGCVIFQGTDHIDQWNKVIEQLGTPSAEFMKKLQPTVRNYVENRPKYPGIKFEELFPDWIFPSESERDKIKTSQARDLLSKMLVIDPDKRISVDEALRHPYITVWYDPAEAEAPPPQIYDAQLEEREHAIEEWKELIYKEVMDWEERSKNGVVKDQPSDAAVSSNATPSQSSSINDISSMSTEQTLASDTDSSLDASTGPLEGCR
Sequence of PDK1 (O15530 whole entry): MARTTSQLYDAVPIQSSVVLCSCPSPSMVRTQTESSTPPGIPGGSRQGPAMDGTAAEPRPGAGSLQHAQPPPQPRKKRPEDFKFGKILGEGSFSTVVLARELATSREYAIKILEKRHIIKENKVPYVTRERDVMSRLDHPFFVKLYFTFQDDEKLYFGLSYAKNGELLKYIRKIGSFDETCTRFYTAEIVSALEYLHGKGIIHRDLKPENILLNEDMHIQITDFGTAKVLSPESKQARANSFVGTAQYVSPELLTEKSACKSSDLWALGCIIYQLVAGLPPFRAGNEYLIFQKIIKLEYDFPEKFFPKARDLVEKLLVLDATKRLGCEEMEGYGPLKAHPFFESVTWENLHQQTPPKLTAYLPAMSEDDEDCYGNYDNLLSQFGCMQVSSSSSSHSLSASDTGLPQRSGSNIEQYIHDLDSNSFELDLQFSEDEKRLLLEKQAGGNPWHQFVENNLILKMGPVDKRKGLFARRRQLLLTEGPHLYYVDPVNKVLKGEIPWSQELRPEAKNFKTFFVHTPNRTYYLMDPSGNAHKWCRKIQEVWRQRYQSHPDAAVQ
Sequence of NEK2a (P51955 whole entry): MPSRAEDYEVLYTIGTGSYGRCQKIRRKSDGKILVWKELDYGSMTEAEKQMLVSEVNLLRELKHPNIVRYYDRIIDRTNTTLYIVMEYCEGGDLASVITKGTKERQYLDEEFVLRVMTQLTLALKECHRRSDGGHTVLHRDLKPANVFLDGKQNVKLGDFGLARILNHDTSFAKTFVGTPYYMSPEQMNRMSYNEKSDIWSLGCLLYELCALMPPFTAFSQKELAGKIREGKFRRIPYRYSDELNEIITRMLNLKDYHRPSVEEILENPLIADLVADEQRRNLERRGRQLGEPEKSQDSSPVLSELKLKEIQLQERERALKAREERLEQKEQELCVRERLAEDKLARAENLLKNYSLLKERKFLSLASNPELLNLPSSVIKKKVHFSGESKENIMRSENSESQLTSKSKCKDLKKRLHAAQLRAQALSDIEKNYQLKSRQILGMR
Sequence of PKD1 (Q15139 whole entry): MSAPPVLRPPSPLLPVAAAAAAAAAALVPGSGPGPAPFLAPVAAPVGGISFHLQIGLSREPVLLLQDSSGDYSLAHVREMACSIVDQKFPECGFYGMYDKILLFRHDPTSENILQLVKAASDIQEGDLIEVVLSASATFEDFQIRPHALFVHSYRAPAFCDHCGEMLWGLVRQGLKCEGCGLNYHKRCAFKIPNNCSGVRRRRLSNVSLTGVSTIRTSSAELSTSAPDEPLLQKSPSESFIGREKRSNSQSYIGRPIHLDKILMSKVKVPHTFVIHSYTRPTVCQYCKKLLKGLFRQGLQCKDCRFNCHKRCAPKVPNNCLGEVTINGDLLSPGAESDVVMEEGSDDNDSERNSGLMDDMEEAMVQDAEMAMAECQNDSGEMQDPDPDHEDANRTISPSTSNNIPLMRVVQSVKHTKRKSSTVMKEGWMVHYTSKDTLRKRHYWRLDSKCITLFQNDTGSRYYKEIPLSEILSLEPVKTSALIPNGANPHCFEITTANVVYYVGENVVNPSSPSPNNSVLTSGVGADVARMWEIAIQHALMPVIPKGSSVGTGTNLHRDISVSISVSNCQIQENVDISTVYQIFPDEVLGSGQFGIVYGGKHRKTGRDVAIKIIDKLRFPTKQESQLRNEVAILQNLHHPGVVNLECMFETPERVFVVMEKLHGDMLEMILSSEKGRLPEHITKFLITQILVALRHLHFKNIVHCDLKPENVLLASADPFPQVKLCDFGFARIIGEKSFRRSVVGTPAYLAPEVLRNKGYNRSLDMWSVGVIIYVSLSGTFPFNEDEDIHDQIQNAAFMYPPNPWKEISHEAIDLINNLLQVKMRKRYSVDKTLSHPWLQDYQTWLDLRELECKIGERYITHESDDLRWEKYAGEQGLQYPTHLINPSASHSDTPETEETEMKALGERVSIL
Sequence of BRSK1 (Q8TDC3 whole entry): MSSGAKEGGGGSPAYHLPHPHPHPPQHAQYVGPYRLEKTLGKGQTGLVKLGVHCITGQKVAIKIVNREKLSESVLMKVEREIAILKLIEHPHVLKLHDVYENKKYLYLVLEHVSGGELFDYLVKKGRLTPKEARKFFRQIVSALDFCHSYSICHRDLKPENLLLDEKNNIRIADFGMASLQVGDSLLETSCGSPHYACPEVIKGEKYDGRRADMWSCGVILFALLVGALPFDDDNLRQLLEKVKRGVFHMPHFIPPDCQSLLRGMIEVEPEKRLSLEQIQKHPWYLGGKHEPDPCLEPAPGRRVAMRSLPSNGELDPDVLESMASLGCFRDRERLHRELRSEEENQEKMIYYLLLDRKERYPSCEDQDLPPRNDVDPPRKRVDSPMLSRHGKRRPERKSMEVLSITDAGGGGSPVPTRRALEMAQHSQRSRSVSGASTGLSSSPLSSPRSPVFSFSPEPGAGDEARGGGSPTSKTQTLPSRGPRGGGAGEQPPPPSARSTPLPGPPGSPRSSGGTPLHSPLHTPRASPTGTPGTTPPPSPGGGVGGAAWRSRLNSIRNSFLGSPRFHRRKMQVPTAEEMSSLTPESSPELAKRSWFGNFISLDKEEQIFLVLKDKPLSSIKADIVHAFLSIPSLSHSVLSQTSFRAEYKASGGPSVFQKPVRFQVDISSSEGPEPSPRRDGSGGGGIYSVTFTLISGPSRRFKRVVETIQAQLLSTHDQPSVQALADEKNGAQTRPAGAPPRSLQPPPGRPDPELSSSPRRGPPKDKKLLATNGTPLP
Sequence of RIPK2 (O43353 whole entry): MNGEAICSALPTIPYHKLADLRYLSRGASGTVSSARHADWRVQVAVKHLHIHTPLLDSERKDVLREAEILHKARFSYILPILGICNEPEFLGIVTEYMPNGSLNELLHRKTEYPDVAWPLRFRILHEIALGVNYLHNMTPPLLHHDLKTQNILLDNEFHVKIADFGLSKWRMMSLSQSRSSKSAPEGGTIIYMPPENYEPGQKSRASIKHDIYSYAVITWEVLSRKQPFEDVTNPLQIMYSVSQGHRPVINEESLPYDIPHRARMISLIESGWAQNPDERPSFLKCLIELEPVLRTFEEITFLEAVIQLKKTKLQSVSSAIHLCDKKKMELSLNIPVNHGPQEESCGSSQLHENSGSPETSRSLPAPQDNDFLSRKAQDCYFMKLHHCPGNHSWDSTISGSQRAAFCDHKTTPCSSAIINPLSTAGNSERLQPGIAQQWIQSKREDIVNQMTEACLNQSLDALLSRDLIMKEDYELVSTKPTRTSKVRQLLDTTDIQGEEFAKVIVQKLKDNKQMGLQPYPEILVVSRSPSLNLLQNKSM

With `O=C1c2c(Br)c(Br)c(Br)c(Br)c2C(=O)N1c1ncc[nH]1` [TBID, 4,5,6,7-Tetrabromo-2-(1H-imidazol-2-yl)isoindoline-1,3-dione] the activity at 1 µM (PAK6) was 102%, the activity at 1 µM (PAK4) was 99% and the activity at 1 µM (p38d MAPK) was 106%. For the same molecule, the activity at 1 µM (ZAP70) was 91%, the activity at 1 µM (JAK2) was 114% and the activity at 1 µM (ABL) was 99%. The activity at 1 µM (RSK2) was 101%, the activity at 1 µM (p38a MAPK) was 88% and the activity at 1 µM (PLK1) was 83%. It also gave an activity at 1 µM (OSR1) of 103%, an activity at 1 µM (HIPK1) of 39% and an activity at 1 µM (PDK1) of 97%. The activity at 1 µM (p38g MAPK) was 101%, the activity at 1 µM (PKCa) was 102% and the activity at 1 µM (Aurora B) was 106%. It also gave an activity at 1 µM (ROCK 2) of 117%, an activity at 1 µM (MARK4) of 95% and an activity at 1 µM (TAK1) of 78%. The activity at 1 µM (PKCγ) was 117%, the activity at 1 µM (YES1) was 110% and the activity at 1 µM (BRSK1) was 110%. It also gave an activity at 1 µM (NEK2a) of 89%, an activity at 1 µM (JNK3) of 101% and an activity at 1 µM (RIPK2) of 102%. The activity at 1 µM (HIPK3) was 53%, the activity at 1 µM (MPSK1) was 93% and the remaining activity at 10 µM (BTK; [1]) was 29%. It also gave an activity at 1 µM (BTK; [2]) of 84%, a remaining activity at 10 µM (DYRK1A; [1]) of 72% and an activity at 1 µM (DYRK1A; [2]) of 104%. For the same molecule, the activity at 1 µM (MLK1) was 83%, the activity at 1 µM (TLK1) was 107% and the activity at 1 µM (JNK2) was 110%. The activity at 1 µM (CDK2-Cyclin A) was 98%, the activity at 1 µM (PKD1) was 98% and the activity at 1 µM (MSK1) was 89%. The activity at 1 µM (CHK2) was 100%, the activity at 1 µM (MKK2) was 96% and the activity at 1 µM (MAPKAP-K3) was 98%. It also gave an activity at 1 µM (CSK) of 89%, an activity at 1 µM (LKB1) of 102% and an activity at 1 µM (Aurora A) of 101%. The activity at 1 µM (IKKe) was 85% and the activity at 1 µM (MINK1) was 91%.
